Results published in patent publication US12290521B2, “Methods and materials for identifying and treating BET inhibitor-resistant cancers” (Mayo Foundation for Medical Education and Research, priority 2018, dated 2025).
Entries after “also recorded” stand apart in the source; their conditions may differ.

Key:
Assay type in all cases: cell-based, human
[1] = system: prostate cancer patient-derived organoid lines; experiment: Organoid cell viability assay (2D and 3D); details: SPOP W131R-expressing organoid compared to two SPOP WT counterparts; 2D and 3D growth
Description: Organoid cells were obtained from Dr. Yu Chen from MSKCC and cultured according to the methodology as described elsewhere (Drost et al., Nat. Protoc., 11:347-358 (2016)). In brief, organoid cells were imbedded in 40 μL Matrigel each drop and cultured in FBS free DMEM/F12 medium supplied with several growth factors. Cell viability assays were conducted by plating 2,000 organoid cells per well of a collagen coated 96-well cell culture plate in […] media with vehicle (DMSO) control or JQ1 (0.05˜1 μM). Viable cells were counted by using a CellTiter-Glo (Promega) Luminescent Cell Viability Assay Kit.

C4-2 cells = experiment: Western blot and RT-qPCR of protein and mRNA expression in C4-2 cells
Description: (§1) Cell lysates or immunoprecipitates were subjected to SDS-PAGE, and proteins were transferred to nitrocellulose membranes (GE Healthcare Sciences). The membranes were blocked in Tris-buffered saline (TBS, pH 7.4) containing 5% non-fat milk and 0.1% Tween-20, washed twice in TBS containing 0.1% Tween-20, and incubated with primary antibody overnight at 4° C., followed by secondary antibody for 1 hour at room temperature. The proteins of interest were visualized using ECL chemiluminescence system (Santa Cruz Biotechnology). Densitometry analysis of protein bands was analyzed on the Gel-Pro Analyzer software.
Total RNA was isolated from transiently transfected cells using the Trizol reagent (Thermo Fisher Scientific), and cDNA was reverse-transcribed using the Superscript RT kit (TOYOBO, Japan) according to the manufacturer's instructions. PCR amplification was performed using the SYBR Green PCR master mix Kit (TOYOBO, Japan). All quantization was normalized to the level of endogenous control GAPDH. The primer sequences for the SYBR green qPCR used were as follows: BRD2-F: 5′-[…]-3′ (SEQ ID NO:10); BRD2-R: 5′-[…]-3′ (SEQ ID NO:11); BRD3-F: 5′-[…]-3′ (SEQ ID NO:12); BRD3-R: 5′-[…]-[…]-3′ (SEQ ID NO:13); BRD4-F: 5′-[…]-GAG-3′ (SEQ ID NO:14); BRD4-F: 5′-[…]-3′ (SEQ ID NO: 15); RAC1-F: 5′-[…]-3′ (SEQ ID NO:16); RAC1-R: 5′-[…]-3′ (SEQ ID NO:17); FDFT1-F: 5′-ACTAT-[…]-3′ (SEQ ID NO:18); FDFT1-R: 5′-[…]-[…]-3′ (SEQ ID NO:19); DHCR24-F: 5′-[…]-GAGC-3′ (SEQ ID NO:20); DHCR24-R: 5′-[…]-3′(SEQ ID NO:21); DHCR7-F: 5′-[…]-3′ (SEQ ID NO: 22); DHCR7-R: 5′-[…]-3′ (SEQ ID NO:23); MVD-F: 5′-[…]-3′ (SEQ ID NO:24); MVD-R: 5′-CACAC-[…]-3′ (SEQ ID NO:25); PSA-F: 5′-[…]-[…]-3′ (SEQ ID NO:26); PSA-R: 5′-[…]-3′ (SEQ ID NO:27); TMPRSS2-F: 5′-[…]-3′ (SEQ ID NO: 28); TMPRSS2-R: 5′-[…]-3′ (SEQ ID NO:29); MYC-F: 5′-[…]-3′ (SEQ ID NO:30); MYC-R: 5′-CTTGT-[…]-3′ (SEQ ID NO:31); AR-F: 5′-[…]-TCACC-3′ (SEQ ID NO:32); AR-R: 5′-[…]-3′ (SEQ ID NO: 33); GAPDH-F: 5′-[…]-3′ (SEQ ID NO:34); and GAPDH-R: 5′-[…]-3′ (SEQ ID NO:35).
Cells were harvested and lysed by IP buffer (50 mM Tris-HCl, pH 7.4, 150 mM NaCl, 1% Triton X-100, 1% sodium deoxycholate and 1% protease inhibitor cocktails) on ice for more than 15 minutes. Cell lysate was centrifuged for 15 minutes at 13,000 rpm at 4° C., and the supernatant was quantified by BCA protein quantification assay. Equal amounts of protein sample were added into 4× sample buffer and boiled for 5 minutes. The sample was subjected to SDS-PAGE analysis and transferred to nitrocellulose membrane. The membrane was blocked by 5% milk for 1 hour at room temperature and incubated with primary antibody at 4° C. overnight. The next day, the membrane was washed three times with 1×TBST and incubated with horseradish peroxidase-conjugated secondary antibodies for 1 hour at room temperature. The protein bands were visualized by SuperSignal West Pico Stable Peroxide Solution (Thermo Fisher Scientific).
Total RNA was isolated using TRIzol reagent (Thermo Fisher Scientific). The NanoDrop 2000 spectrophotometer (Thermo Fisher Scientific) was used to assess RNA yield and quality. RNA was reversely transcribed using Superscript II reverse transcriptase (Thermo Fisher Scientific) following manufacturer's instructions. Quantitative real-time PCR was performed by mixing cDNA, gene-specific primers and IQ SYRB Green Supermix and detected by iCycler QTX detection system (Bio-Rad). The 2-ΔCt method was used to quantitate fold changes by normalizing to GAPDH.

SPOP and BRD2/3/4 = experiment: Western blot, co-IP and in vivo ubiquitination assay in 293T cells; details: JQ1 1 μM, 24 hours
Description: To immunoprecipitate the ectopically expressed FLAG-tagged proteins, transfected cells were lysed 24 hours post-transfection in BC100 buffer. The whole-cell lysates were immunoprecipitated with the monoclonal anti-FLAG antibody-conjugated M2 agarose beads (Sigma-Aldrich) at 4° C. overnight. After three washes with lysis buffer, followed by two washes with BC100 buffer, the bound proteins were eluted using FLAG-Peptide (Sigma-Aldrich) prepared in BC100 for 3 hours at 4° C. The eluted protein sample was resolved by SDS-PAGE. To immunoprecipitate the endogenous proteins, cells were lysed with 1× cell lysis buffer (Cell Signaling Technology), and the lysate was centrifuged. The supernatant was precleared with protein A/G beads (Sigma-Aldrich) and incubated with the indicated antibody and protein A/G beads at 4° C. overnight. Beads were washed five times with lysis buffer and resuspended in sample buffer and analyzed by SDS-PAGE.
as §1
For the in vivo ubiquitination assay, C4-2 cells were transfected with plasmids for HA-Ub, FLAG-BRD4, and other indicated proteins. C ells were treated with 20 μM MG132 for 8 hours before being harvested and lysed with lysis buffer (50 mM Tris-HCl, pH 7.5, 150 mM NaCl, 1% NP40, 0.5% sodium deoxycholate, 1× protease inhibitor cocktail (PIC)). The lysate was subjected to co-immunoprecipitation using anti-FLAG-conjugated agarose beads as described in the Co-IP assay.

[2] = control and SPOP-F133V C4-2 cells, JQ1 1 μM, 24 hours

Cc1sc2c(c1C)C(c1ccc(Cl)cc1)=N[C@@H](CC(=O)OC(C)(C)C)c1nnc(C)n1-2 [JQ1]
sensitivity of organoid to JQ1 [1]: resistant | ERG expression (C4-2 cells; C4-2 and 22Rv1 cells (JQ1 1 μM, 24 hours) and C4-2 tumors): largely decreased | BRD4 protein level (C4-2 cells; C4-2 cells, JQ1): increased | DUB3 mRNA and protein levels (C4-2 cells; C4-2 cells, JQ1): opposite; also recorded: upregulation | NCOR2 protein and mRNA expression (C4-2 cells; C4-2 cells, dose- and time-dependent): decreased | expression of cholesterol synthesis genes (FDFT1, DHCR24, DHCR7, MVD) and BRD4 binding at their promoters (C4-2 cells; SPOP-F133V C4-2 cells, JQ1 1 μM, 24 hours): not pronounced | expression of cholesterol synthesis genes (FDFT1, DHCR24, DHCR7, MVD) and BRD4 binding at their promoters (C4-2 cells; control C4-2 cells, JQ1 1 μM, 24 hours): largely inhibited | AR protein level (C4-2 cells; [2]): largely decreased | AR transcriptional activity (C4-2 cells; [2]): largely decreased | MYC protein expression (C4-2 cells; [2]): markedly decreased | expression of receptor tyrosine kinases HER3, IGF1R and INSR (C4-2 cells; [2]): no effect | SPOP-BRD2/3/4 protein interaction (SPOP and BRD2/3/4): diminished | SPOP-induced BRD2/3/4 ubiquitination and degradation (SPOP and BRD2/3/4): partially blocked
